The experiment deals with Somatostatin receptor. Nature of the experiment: Compound was tested for its inhibitory effect against somatostatin receptor in rat cortex membrane using [125I]Tyr3-octreotide as the radioligand. Type of experiment: cell membranes.
Compound `NCCCCCN1C(=O)C(Cc2c[nH]c3ccccc23)N(C(=O)c2ccccc2)Cc2ccccc21` (stereo in doubt; (+)2) had an IC50 of 8.2 µM. This counts as single-digit micromolar. With `NCCCCCN1C(=O)C(Cc2c[nH]c3ccccc23)N(C(=O)c2ccccc2)Cc2ccccc21` (single isomer, unassigned; (-)), the 50% inhibitory concentration (IC50) is 6.5 µM and the “Log Ki” value is -5.2. Taken in the same sequence, the figures for `NCCCCCN1C(=O)C(Cc2c[nH]c3ccccc23)N(C(=O)c2ccccc2)Cc2ccccc21` (stereo in doubt; 2) were 7 µM and -5.1. `C[C@H](N)C(=O)NCC(=O)N[C@@H]1CSSC[C@@H](C(=O)O)NC(=O)[C@H](CO)NC(=O)[C@@H]([C@@H](C)O)NC(=O)[C@H](Cc2ccccc2)NC(=O)[C@@H]([C@@H](C)O)NC(=O)[C@H](CCCCN)NC(=O)[C@H](Cc2c[nH]c3ccccc23)NC(=O)[C@H](Cc2ccccc2)NC(=O)[C@@H](Cc2ccccc2)NC(=O)[C@H](CC(N)=O)NC(=O)[C@@H](CCCCN)NC1=O` [SOMATOSTATIN RECEPTOR LIGAND] yielded a 50% inhibitory concentration (IC50) of 0.00043 µM.

By IC50 is commonly meant the concentration that gives 50% inhibition.

The values are drawn from ChEMBL document CHEMBL1128963, “A non-peptide ligand for the somatostatin receptor having a benzodiazepinone structure” (Bioorg Med Chem Lett, 1996).
